Test results from ChEMBL document CHEMBL4665686, “Dehydrohispanolone Derivatives Attenuate the Inflammatory Response through the Modulation of Inflammasome Activation” (J Nat Prod, 2020).
The source made the active and inactive calls. No cut-off for these calls is given here.

Assays:
J774.A1 = experiment: Cytotoxicity against mouse J774.A1 cells assessed as cell viability at 10 to 20 uM after 24 hrs by MTT assay; format: cell-based; details: j774.a1, 24 h, dose 10-20 µM
[1] = molecular target: NACHT, LRR and PYD domains-containing protein 3 (Mus musculus) (UniProt Q8R4B8); experiment: Inhibition of NLRP3 in mouse J774A.1 cells assessed as inhibition of LPS-induced NO production at 20 uM measured after 24 hrs by Griess reagent; format: cell-based; details: J774.A1
[2] = molecular target: NACHT, LRR and PYD domains-containing protein 3 (Mus musculus) (UniProt Q8R4B8); experiment: Inhibition of NLRP3 in mouse J774A.1 cells assessed as inhibition of LPS and nigerecin-induced IL-1beta production at 20 uM pre-stimulated with LPS for 5 hrs followed by compound treatment for 30 mins and then nigericin addition for 45 mins by ELISA; format: cell-based; details: J774.A1, time 75.0 min
[3] = molecular target: NACHT, LRR and PYD domains-containing protein 3 (Mus musculus, UniProt Q8R4B8); experiment: Inhibition of NLRP3 in mouse J774A.1 cells assessed as inhibition of LPS and nigerecin-induced IL-1beta production pre-stimulated with LPS for 5 hrs followed by compound treatment for 30 mins and then nigericin addition for 45 mins by ELISA; format: cell-based, J774.A1
[4] = molecular target: NACHT, LRR and PYD domains-containing protein 3 (Mus musculus) (UniProt Q8R4B8); experiment: Inhibition of NLRP3 in mouse J774A.1 cells assessed as inhibition of LPS and ATP-induced IL-1beta production at 20 uM pre-stimulated with LPS for 5 hrs followed by compound treatment for 30 mins and then ATP addition for 45 mins by ELISA; format: cell-based; details: J774.A1, time 75.0 min
[5] = molecular target: NACHT, LRR and PYD domains-containing protein 3 (Mus musculus) (UniProt Q8R4B8); experiment: Inhibition of NLRP3 in mouse J774A.1 cells assessed as inhibition of LPS and MSU-induced IL-1beta production at 20 uM pre-stimulated with LPS for 5 hrs followed by compound treatment for 30 mins and then MSU addition for 24 hrs by ELISA; format: cell-based; details: J774.A1, time 24.5 hrs
[6] = molecular target: NACHT, LRR and PYD domains-containing protein 3 (Mus musculus) (UniProt Q8R4B8); experiment: Inhibition of NLRP3 in mouse J774A.1 cells assessed as inhibition of LPS and nigericin-induced cleaved IL-1beta production at 20 uM pre-stimulated with LPS for 5 hrs before compound addition with ATP for 45 mins by Western blot analysis; format: cell-based; details: J774.A1
[7] = molecular target: NACHT, LRR and PYD domains-containing protein 3 (Mus musculus) (UniProt Q8R4B8); details: J774.A1, dose 300.0 nM, time 45.0 min

NACHT, LRR and PYD domains-containing protein 3 (Mus musculus), sequence (Q8R4B8 whole entry, the tested form may be a part): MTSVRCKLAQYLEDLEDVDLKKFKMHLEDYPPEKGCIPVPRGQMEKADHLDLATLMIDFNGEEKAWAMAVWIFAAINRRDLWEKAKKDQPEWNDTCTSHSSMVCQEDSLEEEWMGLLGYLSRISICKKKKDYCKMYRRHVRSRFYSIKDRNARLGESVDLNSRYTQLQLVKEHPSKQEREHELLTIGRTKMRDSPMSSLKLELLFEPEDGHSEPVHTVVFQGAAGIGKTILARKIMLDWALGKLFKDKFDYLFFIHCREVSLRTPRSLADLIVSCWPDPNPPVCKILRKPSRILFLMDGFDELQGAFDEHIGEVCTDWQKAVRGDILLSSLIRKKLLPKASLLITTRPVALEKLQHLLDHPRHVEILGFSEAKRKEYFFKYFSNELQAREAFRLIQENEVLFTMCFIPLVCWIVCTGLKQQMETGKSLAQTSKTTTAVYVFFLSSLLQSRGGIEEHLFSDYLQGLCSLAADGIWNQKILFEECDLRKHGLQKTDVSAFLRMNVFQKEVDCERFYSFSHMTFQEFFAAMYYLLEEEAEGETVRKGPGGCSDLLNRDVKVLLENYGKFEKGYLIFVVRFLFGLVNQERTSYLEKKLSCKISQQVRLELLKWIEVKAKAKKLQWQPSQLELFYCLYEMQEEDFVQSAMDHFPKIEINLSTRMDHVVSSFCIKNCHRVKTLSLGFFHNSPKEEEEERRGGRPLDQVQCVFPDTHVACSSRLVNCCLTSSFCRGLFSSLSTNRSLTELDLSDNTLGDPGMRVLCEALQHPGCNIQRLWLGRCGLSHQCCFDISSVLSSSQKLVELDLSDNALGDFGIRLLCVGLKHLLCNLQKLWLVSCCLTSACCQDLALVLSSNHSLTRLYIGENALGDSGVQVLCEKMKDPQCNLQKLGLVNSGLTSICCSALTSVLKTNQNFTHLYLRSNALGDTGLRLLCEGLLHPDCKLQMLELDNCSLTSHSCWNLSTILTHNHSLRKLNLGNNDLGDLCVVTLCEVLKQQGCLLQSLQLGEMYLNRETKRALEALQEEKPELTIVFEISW
NACHT, LRR and PYD domains-containing protein 3, sequence (Q8R4B8 whole entry, the tested form may be a part): as above

Row | Structure (SMILES) | Activity (J774.A1) | other results
1 | CO[C@H]1C[C@H]2C(C)(C)CCC[C@]2(C)C(CCc2ccoc2)=C1C | Non-Toxic | 
2 | CC(=O)O/N=C1/C[C@H]2C(C)(C)CCC[C@]2(C)C(CCc2ccoc2)=C1C | Non-Toxic | 
3 | CC1=C(CCc2ccoc2)[C@@]2(C)CCCC(C)(C)[C@@H]2C/C1=N/OC(=O)c1ccc(C(=O)O)cc1 | Toxic | 
4 | CC1=C(CCc2ccoc2)[C@@]2(C)CCCC(C)(C)[C@@H]2CC1N (some centres undefined) | Toxic | 
5 | CCC1=C(Cc2ccoc2)C(=O)[C@@]2(C)CCCC(C)(C)[C@@H]2C1 | Non-Toxic | inhibition [1]: > 50%; inhibition [2]: Active
6 | CC1=C(CCC2CCOC2)[C@@]2(C)CCCC(C)(C)[C@@H]2CC1=O (some centres undefined) | Non-Toxic | inhibition [1]: > 50%; inhibition [2]: Active
7 | CC1=C(CCc2ccoc2)[C@@]2(C)CCCC(C)(C)[C@@H]2C[C@@H]1O | Toxic | 
8 | CC1=C(CCc2ccoc2)[C@@]2(C)CCCC(C)(C)[C@@H]2C/C1=N/OC(=O)N(C)C | Non-Toxic | 
9 | CO/N=C1/C[C@H]2C(C)(C)CCC[C@]2(C)C(CCc2ccoc2)=C1C | Non-Toxic | 
10 | CC1=C(CCc2ccoc2)[C@@]2(C)CCCC(C)(C)[C@@H]2C/C1=N/OS(=O)(=O)c1ccc(C)cc1 | Non-Toxic | 
11 | CC1=C(CCc2ccoc2)[C@@]2(C)CCCC(C)(C)[C@@H]2C/C1=N/OC(=O)c1ccc(C(=O)O/N=C2/C[C@H]3C(C)(C)CCC[C@]3(C)C(CCc3ccoc3)=C2C)cc1 | Non-Toxic | IC50 [3]: 13.8 µM; inhibition [2]: Active; inhibition [4]: Active; inhibition [5]: Active; inhibition [6]: Active
12 | CC1=C(CCc2ccoc2)[C@@]2(C)CCCC(C)(C)[C@@H]2CC1=O | Toxic | 
13 | CC1=C(CCc2ccoc2)[C@@]2(C)CCCC(C)(C)[C@@H]2C/C1=N/OC(=O)CCCCC(=O)O/N=C1/C[C@H]2C(C)(C)CCC[C@]2(C)C(CCc2ccoc2)=C1C | Non-Toxic | 
14 | CC(C)(O)c1coc(S(=O)(=O)NC(=O)Nc2c3c(cc4c2CCC4)CCC3)c1 |  | inhibition [7]: Active
15 | CC1=C(CCc2ccoc2)[C@@]2(C)CCCC(C)(C)[C@@H]2C/C1=N/OC(=O)c1ccc(Br)cc1 | Non-Toxic | inhibition [1]: > 50%
16 | CC1=C(CCc2ccoc2)[C@@]2(C)CCCC(C)(C)[C@@H]2C/C1=N/O | Non-Toxic | 
17 | CCCCCCCCCCCC(=O)O/N=C1/C[C@H]2C(C)(C)CCC[C@]2(C)C(CCc2ccoc2)=C1C | Non-Toxic | IC50 [3]: 18.7 µM; inhibition [2]: Active; inhibition [4]: Active; inhibition [5]: Active; inhibition [6]: Active
18 | CC1=C(CCc2ccoc2)[C@@]2(C)CCCC(C)(C)[C@@H]2C/C1=N/OC(=O)c1cccc(C(=O)O/N=C2/C[C@H]3C(C)(C)CCC[C@]3(C)C(CCc3ccoc3)=C2C)n1 | Non-Toxic | 
19 | CC1=C(CCc2ccoc2)[C@@]2(C)CCCC(C)(C)[C@@H]2CC(=O)N1 | Non-Toxic | 
